Consider 18 molecules from US11447477B2, “Indoleamine-2,3-dioxygenase inhibitor, the preparative method and the use thereof” (HINOVA PHARMACEUTICALS INC., priority 2017, dated 2022).

The target of assay [1] is IDO protease in HeLa cells (Homo sapiens (Human), UniProt P14902). Briefly: Inhibition of IDO protease in HeLa cells (IFNγ-induced, Trp/Kyn by RapidFire/MS). The format is cell-based. Conditions: for IC50: HeLa cells, 25 ng/ml IFNγ, 48 hours. The text has this: 1) Experimental Materials and Apparatus • HeLa cells (ATCC, Cat. No. CCL-2) • γ interferon IFNγ (R&D, Cat. No. 285-IF-100) • DMEM High Glucose media (Invitrogen, Cat. No. 11965-084) • Fetal bovine serum FBS (Invitrogen, Cat. No. 10100-147) • Trypsin-EDTA (0.050%)(Invitrogen, Cat. No. 25300-054) • Phosphate buffer solution PBS, pH 7.4 (Invitrogen, Cat. No. 10010023) • Penicillin-Streptomycin (P/S) (Invitrogen, Cat. No. 15070063) • L-tryptophan (Trp) (Sigma, Cat. No. T8941) • L-kynurenine (Kyn) (Sigma, Cat. No. K8625) • N′-diformylkynurenine (NFK) (J&K, Cat. No. F700490) • 3-Nitro-L-tyrosine (J&K, Cat. No. N0905) • Acetonitrile (Sigma, Cat. No. 34851) • Dimethylsulfoxide DMSO (Sigma, Cat. No. D8418) • Inhibitor INCB024360 (Selleckchem, Cat. No. S7910) • Inhibitor INCB024360-analog (MedKoo, Cat. No. 205493) • Inhibitor NLG919 (Selleckchem, Cat. No. S7111) • 96 well transparent flat bottom polystyrene cell culture plate (Corning, Cat #3599) • 96 well V-bottom polypropylene plate (PE, Cat #6008290) • 96 well U-shaped bottom polypropylene plate (PE, Cat. No. 6008390) • Multidrop™ distribution box with small metal tip (Thermo, Cat. No. 24073295) • Multidrop™ distribution box of standard tube with metal tip (Thermo, Cat. No. 24072670) • Automatic filling platform (Agilent) • Multidrop™ Combi automatic liquid separator (Thermo) • Centrifugal machine (Eppendorf) • Cell incubator (Thermo) • Cell counter (Thermo) • RapidFire Mass system (Agilent)
Chain of IDO protease in HeLa cells (P14902 whole entry): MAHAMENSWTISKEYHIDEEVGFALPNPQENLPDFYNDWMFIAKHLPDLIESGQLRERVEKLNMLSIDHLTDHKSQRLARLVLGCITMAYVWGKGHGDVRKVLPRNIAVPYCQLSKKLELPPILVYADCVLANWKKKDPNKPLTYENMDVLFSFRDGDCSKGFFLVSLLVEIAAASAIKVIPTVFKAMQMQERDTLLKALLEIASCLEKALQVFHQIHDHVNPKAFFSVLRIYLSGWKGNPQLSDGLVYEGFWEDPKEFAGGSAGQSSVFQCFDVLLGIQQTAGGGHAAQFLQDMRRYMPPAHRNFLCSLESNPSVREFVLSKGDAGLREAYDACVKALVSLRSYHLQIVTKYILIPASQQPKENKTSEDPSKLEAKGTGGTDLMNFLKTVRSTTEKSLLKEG
2) Experimental Method for Compound Assay
The compound (compounds 4, 8, 9, 78, 91 of the present invention) was dissolved in DMSO to prepare a solution with a concentration of 3 mM, and then 15 μL of the compound solution is added to a 96 well plate, and serially diluted by 3 times dilution to obtain 10 points. 2 μL compound solution or DMSO (for HPE/ZPE) was transferred to a new 96 well plate. HeLa cell suspension was seeded into the cell culture plate with a density of 1×10^4 cells/well. For HPE control well, the cell culture medium for detection was DMEM, including 10% FBS, 1% P/S, and 122 μM Trp; for ZPE control well and the compound wells, the cell culture medium was DMEM, including 10% FBS, 1% P/S, […], and 25 ng/ml IFNγ. 192 μL detection medium prepared as above was added to a 96 well plate. 78 μL DMEM was added to the compound plate and thoroughly mixed, and then 8 μL compound solution diluted with DMEM was transferred to the 96 well plate containing the detection medium. The cell culture plate was taken out, and the cell culture medium was discarded, then 100 μL compound solution mentioned above was transferred to the cell culture plate. The cell culture plate was moved into the cell incubator and kept for 48 hours. When detected, the cell culture plate was taken out, and 50 μL supernatant was transferred to a new 96 well plate, to which was added 200 μL acetonitrile, and the plate was mixed well. The plate was centrifugated at 4° C. for 20 minutes (rotatory speed being 4000 rpm), and 40 μL supernatant was transferred to another 96 well plate, to which was further added 360 μL deionized water containing […] internal reference (3-nitro-L-tyrosine). The plate was fully mixed, and then the sample was detected by RapidFire/MS system. The standards of L-tryptophan (Trp) and L-kynurenine (Kyn) were dissolved in water to obtain a concentration of 10 mM, and the standard curve was performed by three times dilution. The inhibitory ratio was calculated by obtained data, and the IC50 curve was completed by processing the resultant data with Graphpad Prism5 software.

A further assay addresses human IDO1 protease (Homo sapiens (Human), UniProt P14902). Briefly: Inhibitory activity against human IDO1 protease (absorbance test method). Format: biochemical. The following applies: IDO1 (His-tag) enzyme, absorbance at 320 nm. The method, then:
1) Experimental Materials and Apparatus: • IDO1 (His-tag) enzyme (BPS Bioscience) • L-tryptophan (Sigma) • Methylene blue (Sigma) • Catalase originated from the liver of cattle (Sigma) • L-ascorbic acid (Sigma) • Glycerol (Sigma) • Potassium dihydrogen phosphate solution (Sigma) • Tween 20 (Sigma) • Automatic sampling platform Liquid handler (Bravo & Echo) • Microplate Reader SpectraMax M5e (Molecular Devices)
2) Test Method of Compounds: The Compounds are Determined by Absorbance Test Method:
The tested compounds and the reference compounds are dissolved in DMSO to prepare a high concentration of storage solution. The stock solution of reference compound was diluted with DMSO to prepare a 100× solution. In the first column of the working plate, 8 μL above tested compounds and 8 μL 100× reference compound were respectively added as the highest concentration, and then the highest concentrations were subjected to three times dilution to obtain 11 concentrations and prepare 100× solution. 0.5 μL solution was transferred from the above plate to the detection plate. […]. For HPE and ZPE control wells, 0.5 μL 100% DMSO was added.
25 μL 2×IDO1 (His-tag) enzyme solution (containing L-ascorbic acid, methylene blue, and catalase) was added to each well. 25 μL reaction solution without IDO1 (His-tag) enzyme was added into HPE control well. The test plate was centrifugated at 1000 rpm for 1 minute to mix well. Then, the test plate was incubated at room temperature for 30 minutes. 25 μL above 2× substrate (L-tryptophan) solution was added to each well. The test plate was centrifugated at 1000 rpm for 1 minute to mix well. The detection plate was placed on ELISA (SpectraMax M5e), the temperature was set at 25° C., and the absorbance (OD value) was measured at 320 nm every 10 minutes till 60 minutes.
Calculating the increase ratio of absorbance: the slope of the absorbance increase curve from 10 min to 60 min is derived from SpectralMax M5e. The inhibition coefficient of compound was calculated: the inhibition ratio of compound=(the absorbance increase ratio of ZPE control well−the absorbance increase ratio of compound well)/(the absorbance increase ratio of ZPE control well−the absorbance increase ratio of HPE control well)×100. Results was analyzed by Prism 5.0.

Chain of human IDO1 protease (P14902 whole entry): as above

In the case of `CNS(=O)(=O)N1CC(CNc2nonc2C(=NO)Nc2ccc(F)c(Br)c2)C1` [Compound 78], the IC50 stood at 13 nM in assay [1] and 69 nM against human IDO1 protease.
Turning to `NS(=O)(=O)N1CC(F)(CNc2nonc2C(=NO)Nc2ccc(F)c(Br)c2)C1` [Compound 91, (Z)—N-(3-bromo-4-fluorophenyl)-4-(3-fluoro-1-sulfadiazin-3-yl)methyl)amino)-N′-hydroxyl 1,2,5-oxadiazol-3-carboxyoximide], half-maximal inhibition in assay [1] (IC50) required 74 nM.
Take `NS(=O)(=O)N1CC[C@H](CNc2nonc2/C(=N/O)Nc2ccc(F)c(Br)c2)C1` [Compound 9, (R)—N-(3-bromo-4-fluorophenyl)-N′-hydroxyl-4-(((1-sulfamoylpyrrolidine-3-yl)methyl)amino)-1,2,5-oxadiazole-3-formamidine]: the IC50 in assay [1] stood at 15 nM; at human IDO1 protease, 84 nM.
For `[2H]C([2H])(Nc1nonc1/C(=N/O)Nc1ccc(F)c(Br)c1)C1CN(S(N)(=O)=O)C1` [Compound 150, (Z)—N-(3-bromo-4-fluorophenyl)-N′-hydroxyl-4-(((1-sulfadiazin-3-yl)methyl-D2)amino)-1,2,5-oxadiazol-3-carboxyoximide] the same measures were 9 nM and 81 nM.
For `NS(=O)(=O)N1CC(CCSc2nonc2/C(=N/O)Nc2ccc(F)c(Br)c2)C1` [Compound 149, (Z)—N-(3-bromo-4-fluorophenyl)-N′-hydroxyl-4-((2-(1-sulfamoylazetidin-3-yl)ethyl)thio)-1,2,5-oxadiazol-3-formamidine], in assay [1], the midpoint of inhibition, the IC50, lay at 18 nM. This counts as double-digit nanomolar.
The same measure, in the same setting: to `NC(=O)N1CC(CNc2nonc2/C(=N/O)Nc2ccc(F)c(Br)c2)C1` [Compound 140, (Z)—N-(3-bromo-4-fluorophenyl)-N′-hydroxyl-4-(((1-carbamoylazetidin)-3-methyl)amino)-1,2,5-oxadiazol-3-formamidine] belongs 75 nM.
Consider `NS(=O)(=O)N1CC[C@@H](CNc2nonc2/C(=N/O)Nc2ccc(F)c(Br)c2)C1` [Compound 8, (S)—N-(3-Bromo-4-fluorophenyl)-N′-hydroxyl-4-(((1-sulfamoylpyrrolidine-3-yl)methyl)amino)-1,2,5-oxadiazole-3-formamidine], for which the results for the IC50 (in assay [1]; against human IDO1 protease) were 17 nM and 112 nM, respectively.
Turning to `NS(=O)(=O)N1CC(F)(CNc2nonc2/C(=N/O)Nc2ccc(F)c(Br)c2)C1` [Compound 91], the “inhibitory activities on IDO protease in HeLa cells (in words)” value in assay [1] is given as “excellent”. On human IDO1 protease, this molecule gave an IC50 of 128 nM.
On human IDO1 protease, `O=S(=O)(C1CC1)N1CCC(CNc2nonc2/C(=N/O)Nc2ccc(F)c(Br)c2)C1` (centres unmarked) [Compound 21, N-(3-bromo-4-fluorophenyl)-N′-hydroxyl-4-(((1-cyclopropylsulfonylazacyclopentan-3-yl)methyl)amino)-1,2,5-oxadiazole-3-formamidine] yielded a half-maximal inhibitory concentration (IC50) of 141 nM.
On the same count and under the same terms, the same measure for `NS(=O)(=O)N1CCOC(CNc2nonc2/C(=N/O)Nc2ccc(F)c(Br)c2)C1` (centres unmarked) [Compound 11, N-(3-bromo-4-fluorophenyl)-N′-hydroxyl-4-(((4-sulfamoylmorpholin-2-yl)methyl)amino)-1,2,5-oxadiazole-3-formamidine]: 206 nM.
Same read-out and setting: to `O/N=C(\Nc1ccc(F)c(Br)c1)c1nonc1NCC1CNC1` [Compound 2, 4-((Azetidin-3-ylmethyl)amino)-N-(3-bromo-4-fluorophenyl)-N′-hydroxyl-1,2,5-oxadiazole-3-formamidine] belongs 182 nM; to `CC(C)(C)OC(=O)N1CCC(CNc2nonc2/C(=N/O)Nc2ccc(F)c(Br)c2)C1` (centres unmarked) [Compound 5], 276 nM.
The same measure, in the same setting: the same measure for `CN(C)C(=O)C(=O)N1CC(CNc2nonc2C(=NO)Nc2ccc(F)c(Br)c2)C1` [Compound 89]: 183 nM.
Take `NS(=O)(=O)N1CCC(COc2nonc2/C(=N/O)Nc2ccc(F)c(Br)c2)C1` (centres unmarked) [Compound 27, (Z)—N-(3-Bromo-4-fluorophenyl)-N′-hydroxyl-4-((1-sulfamoylpyrrolidin-3-yl)methoxyl)-1,2,5-oxadiazol-3-formamidine]: the midpoint of inhibition at human IDO1 protease, the IC50, lay at 628 nM.
The same measure, in the same setting: to `NS(=O)(=O)N1CCC1CNc1nonc1/C(=N/O)Nc1ccc(F)c(Br)c1` (centres unmarked) [Compound 12, N-(3-Bromo-4-fluorophenyl)-N′-hydroxyl-4-(((1-sulfamoylazetidine-2-yl)methyl)amino)-1,2,5-oxadiazole-3-formamidine] belongs 133 nM; to `NS(=O)(=O)N1CCCC1CCNc1nonc1/C(=N/O)Nc1ccc(F)c(Br)c1` (centres unmarked) [Compound 16, N-(3-bromo-4-fluorophenyl)-N′-hydroxyl-4-((2-(1-sulfamoylazacyclopentan-2-yl)ethyl)amino)-1,2,5-oxadiazole-3-formamidine], 151 nM.
As for `NS(=O)(=O)N1CC(CCNc2nonc2/C(=N/O)Nc2ccc(F)c(Br)c2)C1` [Compound 132, (Z)—N-(3-bromo-4-fluorophenyl)-N′-hydroxyl-4-((2-(1-sulfamoylazetidin-3-yl)ethyl)amino)-1,2,5-oxadiazol-3-formamidine], half-maximal inhibition in assay [1] (IC50) required 10 nM.
The molecule `NS(=O)(=O)N1CC(CSc2nonc2/C(=N/O)Nc2ccc(F)c(Br)c2)C1` [Compound 148] yielded a 50% inhibitory concentration (IC50) in assay [1] of 14 nM.

One may read the IC50 as the midpoint of a concentration-inhibition curve. Higher therefore signals weaker potency.
